{
  "source": "patent US9567367B2",
  "about": "“Synthetic peptides for treatment of bacterial infections” (priority 2012, dated 2017)",
  "key": {"[1]": {"details": "in vivo"}, "polymicrobial infection": {"system": "polymicrobial infection", "assay": "Cecal ligation and puncture (CLP) polymicrobial infection, survival", "type": "in vivo, mice", "details": "moxifloxacin alone, high dose (LD90) at 12 hours post CLP"}, "Streptococcus pneumoniae": {"system": "Streptococcus pneumoniae", "type": "in vivo, BALB/c mice", "details": "ceftriaxone alone 1 mg/kg i.p. (suboptimal) at 24 hours post infection", "experimental": "Treatment with the peptide D-Ala-p2TA was adjunct to antibiotic treatment, and was given at a delayed time point, when the infection was already established.\nWhen the animals are treated with ceftriaxone alone, administered intraperitoneal (i.p.) at a suboptimal dose of LD25 (1 mg/kg), given at 24 hours after the infection, survival rates increased to 20%. However, when the peptide D-Ala-p2TA (at 5 mg/kg) was given in combination with the antibiotics, 24 hours post infection, substantial increase in survival, to 50%, was detected (see FIG. 17).\nThe correlation between survival benefit and different doses of the peptide D-Ala-p2TA was investigated when the S. pneumoniae infected animals (n=10) received a combination of a fixed dose of antibiotics (ceftriaxone, at a suboptimal dose of 1 mg/kg, administered i.p.) and different doses of the peptide D-Ala-p2TA, given 2 minutes after antibiotic treatment at 24 hours post infection. Under these experimental conditions (see FIG. 18), non-treated mice died rapidly, starting at day 2, and by day 3, all animals were already dead. Antibiotic treatment alone did provide a minor change in survival, bringing it to 20%."}, "S. pyogenes": {"system": "S. pyogenes", "design": "species or system BALB/c mice", "details": "mouse, in vivo"}, "E. coli strain 018:K1": {"system": "E. coli strain 018:K1", "assay": "E. coli peritonitis, survival", "type": "in vivo, BALB/c mice"}},
  "note": "Where two headings read alike, the source gives them in different places. Square brackets hold non-standard residues; d marks the D form. Ends that are not written are not given here.",
  "data": [
    {"molecule": "CSCC[C@H](NC(=O)[C@@H]1CCCN1C(=O)[C@@H](N)CO)C(=O)N[C@@H](CC(C)C)C(=O)N[C@H](C(=O)N[C@@H](C)C(=O)N[C@@H](Cc1ccc(O)cc1)C(=O)N[C@@H](CC(=O)O)C(=O)O)C(C)C", "note": "[p2TA, SPMLVAYD]", "values": [
      {"measurement": "half-life", "setting": "[1]", "result": "1 to 2.6", "unit": "min"}
    ]},
    {"molecule": "H-D-Ala-Ser-Pro-Met-Leu-[U-^14C]Val-Ala-Tyr-Asp-D-Ala-OH [[^14C]-D-Ala-p2TA]", "values": [
      {"measurement": "time of peak accumulation in lymphatic organs (lymph nodes)", "setting": "5 mg/kg single i.v., radioactivity", "result": 20, "unit": "min"},
      {"measurement": "ratio of lymph nodes to plasma", "setting": "4 minutes post infusion", "result": "greater than 1"},
      {"measurement": "ratio of radioactivity in spleen compared to plasma", "setting": "20 min after injection", "result": 6, "unit": "fold"},
      {"measurement": "levels in lymph nodes vs plasma", "setting": "20 minutes", "result": 22, "unit": "fold"},
      {"measurement": "levels in lymph nodes vs plasma", "setting": "24 hours post dosing", "result": "greater than 3 fold"},
      {"measurement": "ratio of radioactivity in spleen compared to plasma", "setting": "24 hours post injection", "result": 3, "unit": "fold"},
      {"measurement": "levels in lymph nodes vs plasma", "setting": "for 2 hours", "result": "more than 5 fold"},
      {"measurement": "start of accumulation in lymphatic organs", "setting": "post injection, 5 mg/kg single i.v.", "result": 4, "unit": "min"}
    ]},
    {"molecule": "COc1c(N2C[C@@H]3CCCN[C@@H]3C2)c(F)cc2c(=O)c(C(=O)O)cn(C3CC3)c12", "note": "[moxifloxacin]", "values": [
      {"measurement": "survival rate", "setting": "polymicrobial infection", "result": 22, "unit": "%"}
    ]},
    {"molecule": "CO/N=C(\\C(=O)N[C@@H]1C(=O)N2C(C(=O)O)=C(CSc3nc(=O)c(=O)[nH]n3C)CS[C@H]12)c1csc(N)n1", "note": "[ceftriaxone]", "values": [
      {"measurement": "survival", "setting": "Streptococcus pneumoniae", "result": 20, "unit": "%"},
      {"measurement": "survival", "setting": "S. pyogenes", "result": 70, "unit": "%"}
    ]},
    {"molecule": "[dA]ASMDYPVL[dA] [scrambled peptide]", "values": [
      {"measurement": "survival rate", "setting": "E. coli strain 018:K1; scrambled peptide control", "result": "comparable to the saline treated control"}
    ]},
    {"molecule": "CO/N=C(\\C(=O)N[C@@H]1C(=O)N2C(C(=O)[O-])=C(C[N+]3(C)CCCC3)CS[C@H]12)c1csc(N)n1", "note": "[cefepime]", "values": [
      {"measurement": "overall survival", "setting": "E. coli strain 018:K1; cefepime alone, suboptimal 5 mg/kg i.m. 4 hours after challenge", "result": 20, "unit": "%"}
    ]}
  ]
}
